Source: PubChem BioAssay (NCI)
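Test compounds were applied to cells in 96-well plates for 48 hours at 5 doses. The concentration for full growth arrest is given as TGI.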 Where a SMILES comes first, the peptide text is derived from it. [ ]: non-standard residue; d: D form. The star is where a group is joined. Bn2Val = CC(C)[C@@H](C(=O)*)N(Cc1ccccc1)Cc1ccccc1; NH(4-Cl-benzyl) = Clc1ccc(CN*)cc1; NMeV = CN[C@H](C(=O)O)C(C)C; dNMeA = CN[C@H](C)C(=O)O

How the values were obtained:
Experiment in all cases: NCI tumour cell line growth inhibition, 48 h
SNB-75 CNS = tested on: SNB-75 CNS
T-47D breast = tested on: T-47D breast
786-0 renal = tested on: 786-0 renal
KM12 colon = tested on: KM12 colon
CAKI-1 renal = tested on: CAKI-1 renal
MOLT-4 leukemia = tested on: MOLT-4 leukemia
OVCAR-5 ovarian = tested on: OVCAR-5 ovarian
K-562 leukemia = tested on: K-562 leukemia
SNB-19 CNS = tested on: SNB-19 CNS
HCC-2998 colon = tested on: HCC-2998 colon

Compound `CC(C)[C@H](NC(=O)[C@H](C(C)C)N(Cc1ccccc1)Cc1ccccc1)C(=O)N(C)[C@H](C(=O)N1CCC[C@H]1C(=O)N(C)[C@H](C)C(=O)NCc1ccc(Cl)cc1)C(C)C` (Bn2Val-V[NMeV]P[dNMeA]-{NH(4-Cl-benzyl)}) has a TGI (SNB-75 CNS) of 29.6 µM, a TGI (T-47D breast) greater than 100 µM and a TGI (786-0 renal) of 28.7 µM. It also gave a TGI (KM12 colon) greater than 100 µM, a TGI (CAKI-1 renal) greater than 100 µM and a TGI (MOLT-4 leukemia) greater than 100 µM. It also gave a TGI (OVCAR-5 ovarian) greater than 100 µM, a TGI (K-562 leukemia) greater than 100 µM and a TGI (SNB-19 CNS) greater than 100 µM.

Work on `COC[C@@H](N=Cc1ccc([N+](=O)[O-])cc1)C(C)C` yielded a TGI (SNB-75 CNS) greater than 100 µM, a TGI (786-0 renal) greater than 100 µM and a TGI (KM12 colon) greater than 100 µM. The TGI (CAKI-1 renal) was greater than 100 µM, the TGI (MOLT-4 leukemia) was greater than 100 µM and the TGI (OVCAR-5 ovarian) was greater than 100 µM. The TGI (K-562 leukemia) was greater than 100 µM and the TGI (SNB-19 CNS) was greater than 100 µM.

With `O=C(Cc1ccc(Cl)c(Cl)c1)NCC1(N2CCCCC2)CCCCC1` the TGI (T-47D breast) was 89.7 µM, the TGI (786-0 renal) was greater than 100 µM and the TGI (KM12 colon) was greater than 100 µM. It also gave a TGI (CAKI-1 renal) greater than 100 µM, a TGI (MOLT-4 leukemia) greater than 100 µM and a TGI (OVCAR-5 ovarian) greater than 100 µM. The TGI (K-562 leukemia) was greater than 100 µM, the TGI (HCC-2998 colon) was 39.1 µM and the TGI (SNB-19 CNS) was greater than 100 µM.

In the case of `CCOP(=O)(O)CN1CCNCCN(CP(=O)(O)OCC)CCNCC1`, the TGI (SNB-75 CNS) is reported as greater than 100 µM, the TGI (T-47D breast) is reported as greater than 100 µM and the TGI (786-0 renal) is reported as greater than 100 µM. The TGI (KM12 colon) was greater than 100 µM, the TGI (CAKI-1 renal) was greater than 100 µM and the TGI (MOLT-4 leukemia) was greater than 100 µM. The TGI (OVCAR-5 ovarian) was greater than 100 µM, the TGI (K-562 leukemia) was greater than 100 µM and the TGI (SNB-19 CNS) was greater than 100 µM.

`C=C(C)CC1(O[Si](C)(C)C)C(=O)C(OCC)=C1OCC` (stereo not drawn) gave a TGI (SNB-75 CNS) greater than 100 µM, a TGI (T-47D breast) greater than 100 µM and a TGI (786-0 renal) greater than 100 µM. The TGI (KM12 colon) was greater than 100 µM, the TGI (CAKI-1 renal) was greater than 100 µM and the TGI (MOLT-4 leukemia) was greater than 100 µM. It also gave a TGI (OVCAR-5 ovarian) greater than 100 µM and a TGI (SNB-19 CNS) greater than 100 µM.

`Cc1cc(OC(=O)NCn2cc(-c3ccccc3)nn2)ccc1Cl` was tested, and the TGI (SNB-75 CNS) was greater than 100 µM, the TGI (786-0 renal) was greater than 100 µM and the TGI (KM12 colon) was greater than 100 µM. For the same compound, the TGI (CAKI-1 renal) was greater than 100 µM, the TGI (MOLT-4 leukemia) was greater than 100 µM and the TGI (OVCAR-5 ovarian) was greater than 100 µM. The TGI (K-562 leukemia) was greater than 100 µM, the TGI (HCC-2998 colon) was 39.2 µM and the TGI (SNB-19 CNS) was greater than 100 µM.

Compound `C=CCP(=O)(CC=C)C(Cl)Cl` has a TGI (SNB-75 CNS) greater than 100 µM, a TGI (T-47D breast) greater than 100 µM and a TGI (CAKI-1 renal) greater than 100 µM. The TGI (MOLT-4 leukemia) was greater than 100 µM, the TGI (OVCAR-5 ovarian) was greater than 100 µM and the TGI (K-562 leukemia) was greater than 100 µM. For the same compound, the TGI (HCC-2998 colon) was greater than 100 µM and the TGI (SNB-19 CNS) was greater than 100 µM.

Work on `NCc1cccc(O)c1O` yielded a TGI (SNB-75 CNS) greater than 100 µM, a TGI (786-0 renal) greater than 100 µM and a TGI (KM12 colon) greater than 100 µM. For the same compound, the TGI (CAKI-1 renal) was greater than 100 µM, the TGI (MOLT-4 leukemia) was greater than 100 µM and the TGI (OVCAR-5 ovarian) was greater than 100 µM. It also gave a TGI (K-562 leukemia) greater than 100 µM and a TGI (SNB-19 CNS) greater than 100 µM.

For `Cn1c(-c2ccc(/C=N/NC(=S)N/N=C/c3ccc(-c4c[n+]5ccsc5n4C)cc3)cc2)c[n+]2ccsc12`, the TGI (SNB-75 CNS) was greater than 100 µM, the TGI (T-47D breast) was greater than 100 µM and the TGI (786-0 renal) was greater than 100 µM. For the same compound, the TGI (KM12 colon) was greater than 100 µM, the TGI (MOLT-4 leukemia) was greater than 100 µM and the TGI (OVCAR-5 ovarian) was greater than 100 µM. It also gave a TGI (HCC-2998 colon) greater than 100 µM and a TGI (SNB-19 CNS) greater than 100 µM.

`NCC(O)CSCc1ccc(Cl)cc1` (stereo not drawn) was tested, and the TGI (T-47D breast) was greater than 100 µM, the TGI (786-0 renal) was greater than 100 µM and the TGI (KM12 colon) was greater than 100 µM. For the same compound, the TGI (CAKI-1 renal) was greater than 100 µM, the TGI (MOLT-4 leukemia) was greater than 100 µM and the TGI (OVCAR-5 ovarian) was greater than 100 µM. It also gave a TGI (K-562 leukemia) greater than 100 µM, a TGI (HCC-2998 colon) greater than 100 µM and a TGI (SNB-19 CNS) greater than 100 µM.

In the case of `CN(C)CCn1c(CO)nc2c1c(=O)n(C)c(=O)n2C`, the TGI (SNB-75 CNS) is reported as greater than 100 µM, the TGI (T-47D breast) is reported as greater than 100 µM and the TGI (786-0 renal) is reported as greater than 100 µM. The TGI (KM12 colon) was greater than 100 µM, the TGI (CAKI-1 renal) was greater than 100 µM and the TGI (OVCAR-5 ovarian) was greater than 100 µM. For the same compound, the TGI (K-562 leukemia) was greater than 100 µM, the TGI (HCC-2998 colon) was greater than 100 µM and the TGI (SNB-19 CNS) was greater than 100 µM.

`CCN(CC)C(=S)SS(=O)(=O)c1cccc(N)c1` was tested, and the TGI (T-47D breast) was greater than 100 µM, the TGI (786-0 renal) was greater than 100 µM and the TGI (KM12 colon) was greater than 100 µM. It also gave a TGI (CAKI-1 renal) greater than 100 µM, a TGI (MOLT-4 leukemia) greater than 100 µM and a TGI (OVCAR-5 ovarian) greater than 100 µM. It also gave a TGI (K-562 leukemia) greater than 100 µM, a TGI (HCC-2998 colon) greater than 100 µM and a TGI (SNB-19 CNS) greater than 100 µM.
